Test results published in paper PMC3740782, “Synthesis of some potent immunomodulatory and anti-inflammatory metabolites by fungal transformation of anabolic steroid oxymetholone” (Chemistry Central Journal, 2012).

Legend:
[1] = test system: T-cell proliferation (PHA activated human peripheral mononuclear cells, PBMC); experiment: T-cell proliferation inhibition assay (PHA-activated PBMC, tritiated thymidine incorporation); assay type: cell-based; conditions: PHA (5 μg/mL) stimulated PBMC, 72 h + 18 h thymidine pulse, mean of triplicate ± SD, read-out: IC50, inhibitory effect on T-cell proliferation
Experimental: Peripheral blood mononuclear cells (PBMC) were isolated from heparinized venous blood of healthy adult donors by Ficoll–Hypaque gradient centrifugation. Cells were proliferated as reported earlier. Briefly, cells were cultured at a concentration of 2 × 10^6/mL in a 96-well round bottom tissue culture plate. Cells were stimulated with 5 μg/mL of phytohemagglutinin. Various concentrations of compounds were added to obtain final concentrations of 0.5, 5, 50 μg/mL, each in triplicate. The plate was incubated for 72 h at 37°C in 5% CO2 environment. After 72 h, cells were pulsed with 0.5 μCi/well, tritiated thymidine, and further incubated for 18 h. Cells were harvested onto a glass fiber filter by using cell harvester. The tritiated thymidine incorporation into the cells, which reflects the proliferation level, was measured by a liquid scintillation counter.

ROS production in PMNs = experiment: Luminol-enhanced phagocyte chemiluminescence assay, ROS production in isolated PMNs (neutrophils); assay type: cell-based; conditions: Homo sapiens, Neutrophil, zymosan activated, luminol probe, mean of triplicate ± SD
Experimental: (§1) Luminol-enhanced chemiluminescence assay was performed according to the previous reported method. Briefly 25 μL of whole blood or neutrophils (1 × 10^6/mL), suspended in Hank’s solution, were incubated with 25 μL compounds (1, 10, 100 μg/mL for whole blood and 0.5, 5, 50 μg/mL for neutrophils) for 30 min. Zymosan 25 μL (20 mg/mL), followed by 25 μL (7 × 10^-5 M) of luminol was added to make a final volume of 100 μL. A control without the compound was also run. Peak chemiluminescence was recorded using the luminometer. The luminometer was set with repeated scan mode, 50 scans with 30 s intervals and one second point measuring time.

[2] = test system: ROS production in whole blood phagocytes; experiment: Luminol-enhanced phagocyte chemiluminescence assay, ROS production in whole blood; assay type: cell-based; conditions: zymosan activated, luminol probe, mean of triplicate ± SD; for IC50: Homo sapiens
Experimental: as §1

T-cells = test system: T-cells; parameters: method as in PMID 11071398; conditions: by decreasing the activity of T-cells; cited from earlier work

Structure (SMILES): C[C@]12CC(=CO)C(=O)C[C@@H]1CC[C@@H]1[C@@H]2CC[C@@]2(C)[C@H]1CC[C@]2(C)O [Compound 1, 17β-hydroxy-2-(hydroxymethylene)-17α-methyl-5α-androstan-3-one, reference compound]
- IC50 [1]: 7.5 ± 0.4 µg/mL
- IC50 (ROS production in PMNs): 6.3 ± 0.1 µg/mL
- IC50 [2]: ~2 µg/mL
- IC50, ROS production (Whole Blood phagocytes) ([2]; human whole blood): 2.3 ± 0.0 µg/mL
- Immunosuppressant activity in vivo (T-cells): immunosuppressant activity

Structure (SMILES): C[C@]12C=C(CO)C(=O)C[C@@H]1CC[C@@H]1[C@@H]2CC[C@@]2(C)[C@H]1CC[C@]2(C)O [Compound 2, 17β-Hydroxy-2-(hydroxymethyl)-17α-methyl-5α-androstan-1-en-3-one]
- IC50 [1]: 17.4 ± 1.2 µg/mL
- IC50 [2]: ~2 µg/mL

Structure (SMILES): C[C@]12C[C@@H](CO)[C@H](O)C[C@@H]1CC[C@@H]1[C@@H]2CC[C@@]2(C)[C@H]1CC[C@@]2(O)CO [Compound 3, 2α,17α-Di(hydroxymethyl)-5α-androstan-3β-17β-diol]
- IC50 [1]: 17 ± 1.2 µg/mL
- IC50 (ROS production in PMNs): > 50 µg/mL
- IC50 [2]: > 100 µg/mL

Structure (SMILES): CC12CC(O)C(O)CC1CCC1C2CCC2(C)C1CCC2(C)O (stereo not drawn) [Compound 4, 17α-Methyl-5α-androstan-2α,3β-17β-triol]
- IC50 [1]: 11.8 ± 0.9 µg/mL
- IC50 (ROS production in PMNs): > 50 µg/mL
- IC50 [2]: > 100 µg/mL
- melting point: 124 to 125 °C

Structure (SMILES): C[C@]12C=C(CO)C(=O)C=C1CC[C@@H]1[C@@H]2CC[C@@]2(C)[C@H]1CC[C@]2(C)O [Compound 5, 17β-Hydroxy-2-(hydroxymethyl)-17α-methylandrost-1,4-dien-3-one]
- IC50 [1]: 31.2 ± 1.9 µg/mL
- IC50 (ROS production in PMNs): > 50 µg/mL
- IC50 [2]: > 100 µg/mL
- melting point: 163 to 164 °C

Structure (SMILES): C[C@]12C[C@@H](CO)C(=O)C[C@@H]1CC[C@@H]1[C@@H]2CC[C@@]2(C)[C@H]1CC[C@]2(C)O [Compound 6, 17β-Hydroxy-2α-(hydroxymethyl)-17α-methyl-5α-androstan-3-one]
- IC50 [1]: 2.7 ± 0.2 µg/mL
- IC50 (ROS production in PMNs): > 50 µg/mL
- IC50 [2]: > 100 µg/mL
- melting point: 197 to 199 °C

Structure (SMILES): C[C@]12C[C@@H](CO)[C@H](O)C[C@@H]1CC[C@@H]1[C@@H]2CC[C@@]2(C)[C@H]1CC[C@]2(C)O [Compound 7, 2α-(Hydroxymethyl)-17α-methyl-5α-androstan-3β-17β-diol]
- IC50 [1]: 10.6 ± 0.4 µg/mL
- IC50 (ROS production in PMNs): > 50 µg/mL
- IC50 [2]: 25.6 µg/mL
- melting point: 279 to 281 °C

Structure (SMILES): CC(C)Cc1ccc(C(C)C(=O)O)cc1 (centres unmarked) [Ibuprofen, reference compound]
- IC50 (ROS production in PMNs): 2.5 ± 0.6 µg/mL
- IC50 [2]: 11.2 ± 1.9 µg/mL

Structure (SMILES): C[C@]12C=CC(=O)C=C1CC[C@@H]1[C@@H]2[C@@H](O)C[C@@]2(C)[C@H]1CC[C@]2(O)C(=O)CO [Prednisolone, reference compound]
- IC50 [1]: < 3.1 µg/mL
